Source: patent US20080025960A1, “Detergents with stabilized enzyme systems” (priority 2006, published 2008)

What was measured:
Type in all cases: biochemical
choline oxidase [1] = molecular target: T1, choline oxidase (Arthrobacter globiformis, UniProt Q7X2H8); experiment: H2O2 in control buffer or AATCC liquid detergent stock with choline oxidase, choline and inhibitor; settings: for H2O2 PPM: T = 0+, 12, 30 and 60, 1M choline chloride, 10U choline oxidase, 100 mM sodium bisulfite inhibitor (pH7)
T1 sequence (Q7X2H8 1-546): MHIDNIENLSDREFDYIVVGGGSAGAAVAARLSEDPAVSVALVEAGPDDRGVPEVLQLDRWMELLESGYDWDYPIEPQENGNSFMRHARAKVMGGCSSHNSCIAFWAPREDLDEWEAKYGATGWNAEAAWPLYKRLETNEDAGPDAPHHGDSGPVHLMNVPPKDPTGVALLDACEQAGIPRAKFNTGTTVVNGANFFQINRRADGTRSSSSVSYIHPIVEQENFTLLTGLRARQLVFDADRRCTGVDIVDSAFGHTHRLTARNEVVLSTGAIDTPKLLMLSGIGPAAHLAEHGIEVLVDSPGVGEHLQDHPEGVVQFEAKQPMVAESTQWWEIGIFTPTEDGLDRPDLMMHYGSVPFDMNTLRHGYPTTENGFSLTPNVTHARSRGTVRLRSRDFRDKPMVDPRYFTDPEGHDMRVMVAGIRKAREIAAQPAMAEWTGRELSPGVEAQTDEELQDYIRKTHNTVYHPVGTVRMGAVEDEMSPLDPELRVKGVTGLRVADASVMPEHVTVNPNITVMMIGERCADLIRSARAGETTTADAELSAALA
Description: In this Example, experiments conducted to assess the stabilization of choline oxidase in the presence of its substrate (i.e., choline) and an inhibitor (i.e., sodium bisulfite and 2-amino,2-methyl,1-propanol) is described. In these experiments, AATCC standard detergent was used.
(§1) The experiments were conducted as described in Example 1. Choline oxidase produces two moles of H2O2 per mole of choline. The results obtained in these experiments confirmed that choline oxidase was stable in AATCC detergent over 24 hour period tested in presence of choline and inhibitors. […] Upon dilution in wash liquor, detergent containing choline oxidase, choline chloride and an inhibitor (e.g., sodium hydrogen sulfite or 2-amino,2-methyl,1-propanol) produced H2O2 over time, as indicated in Table 5.

choline oxidase [2] = molecular target: T1, choline oxidase; experiment: H2O2 in wash liquor with choline oxidase, choline chloride and inhibitor; settings: 2 mM choline chloride, 0.02U choline oxidase, 0.2 mM sodium bisulfite inhibitor (pH7)
Description: as §1

glucose oxidase = molecular target: T2, glucose oxidase (Aspergillus niger, UniProt P13006); experiment: Premature hydrogen peroxide generation by glucose oxidase in control buffer or AATCC liquid detergent stock (as is) with glucose and inhibitor, dipsticks; settings: for Hydrogen Peroxide Generation, PPM H2O2: T = 0+, 500 PPM oxidase; for Hydrogen Peroxide Generation, PPM H2O2 / hydrogen peroxide production / H2O2 generated: as is; for Hydrogen Peroxide Generation, PPM H2O2 / premature hydrogen peroxide generation / H2O2 PPM: 500 mM glucose; for premature hydrogen peroxide generation: liquid detergent formulation, 500 PPM glucose oxidase, over 21 days; for H2O2 PPM: T = 0+, 12, 30, as is, 500 PPM enzyme, 100 mM sodium metabisulfite; for H2O2 generated: time 0+
T2 construct: purchased Genencor OXYGO L-5000
Excerpt: In this Example, experiments conducted to assess the stabilization of glucose oxidase in the presence of its substrate (i.e., glucose) and an inhibitor (i.e., sodium hydrogen sulfite) is described. In these experiments, AATCC standard detergent (American Association of Textile Chemists and Colorists Heavy Duty Liquid detergent version 2003 without brightener; key components include linear alkane sulfonate, alcohol ethoxylate, propanediol, citric acid, fatty acid, castic soda and water; purchased from TestFabrics) was used.
In these experiments, 100 mM Tris pH 8.3, with 0.005% TWEEN®-100 surfactant used as a positive control. […] Three two-ml tubes were weighed with 0.990 g of AATCC detergent (lot # 01282004) and another three tubes with 0.990 g of control buffer. Then, 90 mg (500 mM) of glucose substrate were added to all of the tubes. Next, 100, 50, and 10 mM sodium hydrogen sulfite (MW 106.1) were added to each tube respectively, including the control buffer and AATCC detergent control. All of the tubes were placed on a rotary plate for an hour to allow good mixing and solubilization of glucose into the detergent. Then, 500 PPM (0.5 mg, 14.88 ul) glucose oxidase (OXYGO™ L-5000, 5379 U/ml; 33.6 mg/ml; Genencor) was added to six 2-ml tubes (three with glucose/bisulfite containing control buffers and three with glucose/bisulfite containing AATCC detergent). All of the tubes were then set on the rotary plate (60 rpm) at room temperature. Hydrogen peroxide production was measured using dipsticks (peroxidase/ABTS—Baker Testrips;Baker) at various times—t=0+minutes, 12 minutes, and 30 minutes. The tube containing 100 mM bisulfite with glucose, glucose oxidase in liquid detergent was further monitored for premature generation of hydrogen peroxide further over a period of time starting at 1 hr, 12 hr, 7 days, 12 days and up to 21 days.
In these experiments, 100 mM Tris pH 8.3, with 0.005% TWEEN®-100 surfactant was used as a positive control. […] Three two-ml tubes were weighed with 0.990 g of AATCC detergent (lot # 01282004) and another three tubes with 0.990 g of control buffer.
Three two-ml tubes containing 0.990 g of AATCC detergent (lot # 01282004) and another three tubes with 0.990 g of control buffer were weighed. Then, 90 mg (500 mM) glucose substrate was added to each tube. Then, 100, 50, and 10 mM sodium metabisulfite were added to each tube respectively (i.e., both control buffer and AATCC detergent-containing tubes). All of the tubes were placed on a rotary plate for an hour to allow good mixing and solubilization of glucose into the detergent. Next, 500 PPM (0.5 mg, 14.88 ul) glucose oxidase (OXYGO™ L-5000, 5379 U/ml; 33.6 mg/ml; Genencor) was added to six 2-ml tubes (three with glucose/metabisulfite containing control buffers and three with glucose/metabisulfite containing AATCC detergent). All of the tubes were then set on the rotary plate (60 rpm) at room temperature. H2O2 production was measured using dipsticks (peroxidase/ABTS), as described in Examples 1 and 2, for t=0+ minutes, 12 minutes, and 30 minutes. The tube containing 100 mM bisulfite with glucose, glucose oxidase in liquid detergent was further monitored for premature generation of hydrogen peroxide further over a period of time starting at 1 hr, 12 hr, 7 days, 12 days and up to 21 days.

T2 sequence (P13006 17-605): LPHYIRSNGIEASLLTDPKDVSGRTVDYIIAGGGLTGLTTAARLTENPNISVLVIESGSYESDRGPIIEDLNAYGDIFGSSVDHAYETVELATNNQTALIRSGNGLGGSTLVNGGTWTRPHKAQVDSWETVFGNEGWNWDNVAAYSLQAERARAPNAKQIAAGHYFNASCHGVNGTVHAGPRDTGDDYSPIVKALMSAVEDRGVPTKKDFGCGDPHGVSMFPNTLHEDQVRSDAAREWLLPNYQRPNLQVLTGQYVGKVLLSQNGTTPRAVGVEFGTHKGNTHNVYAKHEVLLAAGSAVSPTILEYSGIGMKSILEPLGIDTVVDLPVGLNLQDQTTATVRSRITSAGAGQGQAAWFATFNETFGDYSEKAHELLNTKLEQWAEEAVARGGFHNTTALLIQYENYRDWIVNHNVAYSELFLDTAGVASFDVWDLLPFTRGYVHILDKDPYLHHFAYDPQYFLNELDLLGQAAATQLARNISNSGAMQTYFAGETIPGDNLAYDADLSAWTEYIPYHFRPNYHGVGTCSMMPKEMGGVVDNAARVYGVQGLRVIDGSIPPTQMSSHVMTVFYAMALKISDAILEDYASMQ

O=S([O-])O.[Na+] [bisulfite, sodium hydrogen sulfite]
H2O2 PPM (choline oxidase [1]; AATCC Detergent): 0 PPM | H2O2 PPM (choline oxidase [1]; Control Buffer): 0 PPM | premature generation of H2O2 in AATCC detergent stock (choline oxidase [1]; sodium hydrogen sulfite 100 mM concentration): able to stop premature generation of H2O2 | character of choline oxidase inhibition (choline oxidase [1]; sodium hydrogen sulfite at 100 mM concentration tested): reversible inhibitor | H2O2 PPM (choline oxidase [2]; AATCC Detergent, T = 0+): 1 PPM | H2O2 PPM (choline oxidase [2]; AATCC Detergent, T = 12 min): 10 PPM | H2O2 PPM (choline oxidase [2]; AATCC Detergent, T = 30 min): > 10 PPM | H2O2 PPM (choline oxidase [2]; AATCC Detergent, T = 60 min): 30 PPM | H2O2 PPM (choline oxidase [2]; Control Buffer, T = 0+): 1 PPM | H2O2 PPM (choline oxidase [2]; Control Buffer, T = 12 min): 10 PPM | H2O2 PPM (choline oxidase [2]; Control Buffer, T = 30 min): > 10 PPM | H2O2 PPM (choline oxidase [2]; Control Buffer, T = 60 min): 30 PPM | Hydrogen Peroxide Generation, PPM H2O2 (glucose oxidase; AATCC Detergent, 10 mM bisulfite): >10 PPM | Hydrogen Peroxide Generation, PPM H2O2 (glucose oxidase; AATCC Detergent, 50 mM bisulfite): 10 PPM | Hydrogen Peroxide Generation, PPM H2O2 (glucose oxidase; AATCC Detergent, 100 mM bisulfite): 0 PPM | Hydrogen Peroxide Generation, PPM H2O2 (glucose oxidase; Control Buffer, 10 mM bisulfite): 1 PPM | Hydrogen Peroxide Generation, PPM H2O2 (glucose oxidase; Control Buffer, 50 mM bisulfite): 0 PPM | Hydrogen Peroxide Generation, PPM H2O2 (glucose oxidase; Control Buffer, 100 mM bisulfite): 0 PPM | hydrogen peroxide production (glucose oxidase; Example 3 (metabisulfite), buffer control mixture, 50 mM, various time periods tested): did not produce any hydrogen peroxide | hydrogen peroxide production (glucose oxidase; Example 3 (metabisulfite), buffer control mixture, 100 mM, time periods tested): did not produce any hydrogen peroxide | hydrogen peroxide production (glucose oxidase; buffer control mixture, 50 mM bisulfite, various time periods tested): did not produce any hydrogen peroxide | hydrogen peroxide production (glucose oxidase; buffer control mixture, 100 mM bisulfite, time periods tested): did not produce any hydrogen peroxide | premature hydrogen peroxide generation (glucose oxidase; 100 mM sodium hydrogen sulfite): no premature hydrogen peroxide generation was observed

O=S([O-])S(=O)(=O)[O-].[Na+].[Na+] [sodium metabisulfite]
H2O2 PPM (glucose oxidase; AATCC Detergent): 0 PPM | H2O2 PPM (glucose oxidase; Control Buffer): 0 PPM | H2O2 generated (glucose oxidase; buffer control mixture, 10 mM metabisulfite): 1 PPM | H2O2 generated (glucose oxidase; detergent mixture, 10 mM metabisulfite): > 10 PPM | H2O2 generated (glucose oxidase; detergent mixture, 50 mM metabisulfite): > 10 PPM | premature hydrogen peroxide generation (glucose oxidase; 100 mM inhibitor): no premature hydrogen peroxide generation was observed
